Laboratory results taken from the NIST ThermoML archive (doi:10.1016/j.fluid.2009.03.002).

Assays:
[1] = cn = amount concentration of the nth substance listed, in mol/dm3; conditions: 101 kPa, Liquid, Direct current cell with electrodes
[2] = wn = mass fraction of the nth substance listed; conditions: 101 kPa, Liquid; for viscosity: Capillary tube (Ostwald / Ubbelohde) method; for mass density: Pycnometric method
[3] = relative permittivity at zero frequency (dimensionless); wn = mass fraction of the nth substance listed; conditions: 101 kPa, Liquid, Parallel plate capacitor

[I-].[Na+] [sodium iodide] + CO
molar conductivity [S·m2/mol], [1]
Conditions | 293.15 K | 298.15 K | 303.15 K
c1 = 0.0007005 | 0.008344 | 0.008814 | 0.0098
c1 = 0.001005 | 0.008236 | 0.008686 | 0.00954
c1 = 0.001541 | 0.00804 | 0.008464 | 0.009246
c1 = 0.001778 | 0.007969 | 0.008407 | 0.009148
c1 = 0.001998 | – | 0.008329 | –
c1 = 0.002202 | – | – | 0.009014
c1 = 0.002391 | 0.00784 | 0.00825 | 0.00896
c1 = 0.002569 | 0.007786 | 0.008171 | 0.008907
c1 = 0.003036 | 0.007688 | – | –
c1 = 0.003173 | – | 0.008019 | 0.00852
c1 = 0.003425 | – | 0.007956 | 0.00846
c1 = 0.003541 | 0.0076 | – | –
c1 = 0.00365 | – | 0.007907 | 0.0084
c1 = 0.003754 | 0.007556 | – | –
c1 = 0.004122 | 0.0075 | – | –
c1 = 0.004203 | – | 0.007791 | 0.00825
c1 = 0.004684 | 0.007431 | – | –
c1 = 0.004742 | – | 0.007697 | –
c1 = 0.004852 | – | – | 0.00804
c1 = 0.004954 | – | 0.007663 | –
c1 = 0.005049 | – | – | 0.008
c1 = 0.005094 | 0.007356 | – | –
c1 = 0.005504 | – | 0.007571 | –
c1 = 0.005623 | – | – | 0.00782
c1 = 0.005651 | 0.007288 | – | –
c1 = 0.006031 | – | 0.007494 | –
c1 = 0.00618 | 0.007194 | – | –
c1 = 0.006252 | – | – | 0.0076
c1 = 0.006529 | 0.00715 | – | –

OCCO [1,2-ethanediol] + CO
Conditions | mass density, 293.15 K [kg/m3] | mass density, 298.15 K [kg/m3] | mass density, 303.15 K [kg/m3] | relative permittivity at zero frequency, 293.15 K | relative permittivity at zero frequency, 298.15 K | relative permittivity at zero frequency, 303.15 K | viscosity, 293.15 K [mPa·s] | viscosity, 298.15 K [mPa·s] | viscosity, 303.15 K [mPa·s]
[2], w1 = 0.25 | 864.7 | 860.9 | 858.6 | – | – | – | 1.127 | 1.03 | 0.9454
[2], w1 = 0.5 | 938.3 | 933.8 | 932.1 | – | – | – | 2.269 | 2.045 | 1.81
[2], w1 = 0.75 | 1023.4 | 1019.6 | 1017.3 | – | – | – | 5.8 | 4.904 | 4.232
[3], w1 = 0.25 | – | – | – | 35.2 | 34.7 | 33.7 | – | – | –
[3], w1 = 0.5 | – | – | – | 37.3 | 36.7 | 35.6 | – | – | –
[3], w1 = 0.75 | – | – | – | 39.3 | 38.7 | 37.4 | – | – | –

N#C[S-].[Na+] [sodium thiocyanate] + CO
molar conductivity [S·m2/mol], [1]
Conditions | 293.15 K | 298.15 K | 303.15 K
c1 = 0.0006986 | 0.00956 | 0.01035 | 0.01085
c1 = 0.001002 | 0.009407 | 0.010245 | –
c1 = 0.001281 | – | – | 0.0106
c1 = 0.001537 | 0.009271 | 0.0101 | 0.010507
c1 = 0.001773 | 0.009192 | 0.010014 | 0.01045
c1 = 0.002195 | – | 0.009936 | 0.010314
c1 = 0.002385 | 0.008993 | 0.009871 | 0.010271
c1 = 0.002561 | 0.00895 | 0.009821 | 0.010214
c1 = 0.003164 | 0.008836 | 0.009707 | 0.01008
c1 = 0.003415 | 0.008784 | 0.009675 | 0.010014
c1 = 0.00364 | – | 0.009616 | 0.009979
c1 = 0.003842 | 0.00872 | – | –
c1 = 0.004191 | 0.008664 | 0.009507 | 0.009864
c1 = 0.004343 | 0.00868 | – | –
c1 = 0.004729 | – | 0.009414 | –
c1 = 0.004838 | 0.008578 | – | 0.009735
c1 = 0.005035 | 0.008541 | – | 0.009713
c1 = 0.005489 | – | 0.009293 | –
c1 = 0.005607 | – | – | 0.0096
c1 = 0.005662 | 0.008477 | – | –
c1 = 0.005855 | – | 0.00925 | –
c1 = 0.006014 | – | 0.009229 | –
c1 = 0.006261 | – | – | 0.009493
c1 = 0.006336 | 0.008396 | – | –

CC(=O)[O-].[Na+] [sodium ethanoate] + CO
molar conductivity [S·m2/mol], [1]
Conditions | 293.15 K | 298.15 K | 303.15 K
c1 = 0.0007037 | 0.007613 | 0.00835 | 0.00893
c1 = 0.00101 | 0.007497 | 0.00824 | 0.00857
c1 = 0.00129 | – | 0.008107 | –
c1 = 0.001548 | 0.007306 | – | 0.00804
c1 = 0.001786 | 0.007275 | 0.007949 | 0.00786
c1 = 0.002007 | – | 0.007893 | 0.0078
c1 = 0.002402 | 0.007159 | 0.007788 | 0.00754
c1 = 0.00258 | 0.007131 | 0.007732 | 0.0074
c1 = 0.003188 | 0.006994 | 0.007579 | 0.00714
c1 = 0.003441 | 0.006947 | 0.007529 | 0.00696
c1 = 0.003667 | 0.006913 | 0.007475 | 0.00692
c1 = 0.004222 | 0.006825 | 0.007371 | 0.0068
c1 = 0.004764 | 0.006759 | 0.007263 | –
c1 = 0.004874 | – | – | 0.00643
c1 = 0.004976 | 0.006732 | 0.007194 | –
c1 = 0.005072 | – | – | 0.00634
c1 = 0.005529 | – | 0.007125 | –
c1 = 0.005591 | 0.006636 | – | –
c1 = 0.005649 | – | – | 0.0062
c1 = 0.005756 | 0.006636 | – | –
c1 = 0.005898 | – | 0.007044 | –
c1 = 0.005982 | – | – | 0.00612
c1 = 0.006002 | – | 0.00701 | –
c1 = 0.006253 | 0.006557 | – | –
c1 = 0.006281 | – | – | 0.00612
c1 = 0.006493 | 0.00653 | – | –

CO [methanol] + OCCO
w2 = 0
Conditions | mass density, 293.15 K [kg/m3] | mass density, 298.15 K [kg/m3] | mass density, 303.15 K [kg/m3] | relative permittivity at zero frequency, 293.15 K | relative permittivity at zero frequency, 298.15 K | relative permittivity at zero frequency, 303.15 K | viscosity, 293.15 K [mPa·s] | viscosity, 298.15 K [mPa·s] | viscosity, 303.15 K [mPa·s]
[2] | 791 | 785.9 | 781.4 | – | – | – | 0.5814 | 0.5436 | 0.5112
[3] | – | – | – | 33.1 | 32.7 | 31.9 | – | – | –
